These results are taken from ChEMBL document CHEMBL4138319, “Discovery, Synthesis, Pharmacological Profiling, and Biological Characterization of Brintonamides A-E, Novel Dual Protease and GPCR Modulators from a Marine Cyanobacterium” (J Med Chem, 2018).

The test has as its target T1, Substance-K receptor (Homo sapiens) (UniProt P21452).
T1 sequence (whole entry): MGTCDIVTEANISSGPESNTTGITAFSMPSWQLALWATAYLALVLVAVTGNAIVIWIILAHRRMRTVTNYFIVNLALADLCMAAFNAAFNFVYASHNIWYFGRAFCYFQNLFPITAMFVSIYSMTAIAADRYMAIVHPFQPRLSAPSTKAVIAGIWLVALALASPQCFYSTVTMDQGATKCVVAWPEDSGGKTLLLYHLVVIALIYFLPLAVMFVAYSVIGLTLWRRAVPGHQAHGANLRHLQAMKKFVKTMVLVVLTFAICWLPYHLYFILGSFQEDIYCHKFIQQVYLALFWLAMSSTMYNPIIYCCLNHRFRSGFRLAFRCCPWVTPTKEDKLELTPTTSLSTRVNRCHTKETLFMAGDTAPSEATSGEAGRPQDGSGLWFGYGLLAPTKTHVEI
The experiment in a line: Antagonist activity at human TACR2 expressed in CHOK1 cells assessed as substance P-induced beta-arrestin recruitment at 10 uM pre-incubated for 30 mins before substance P stimulation for 90 or 180 mins by chemiluminescence method. The class given is functional, cell-based. Set-up: scale not given: the % may be the effect or the level left.

SMILES strings stand for the structures. Square brackets hold non-standard residues; d marks the D form. Peptide text beside a SMILES is read from it. * marks the point of attachment. X1 = CC[C@H](C)[C@@H](OC(=O)/C=C/c1ccccc1)C(=O)*; dNMeF = CN[C@H](Cc1ccccc1)C(=O)O; NMeL = CN[C@@H](CC(C)C)C(=O)O

As for `CC[C@H](C)[C@@H](OC(=O)/C=C/c1ccccc1)C(=O)N1CCC[C@H]1C(=O)NCC(=O)N(C)[C@@H](CC(C)C)C(=O)N[C@@H](C)C(=O)N(C)[C@H](Cc1ccccc1)C(=O)N1CCC[C@H]1C(=O)OC` (X1-PG[NMeL]A[dNMeF]P-OMe), the Activity worked out at 97%.
